# Reference: patent US20080269251A1, “Substituted Pyrazinone Derivatives as Alpha2C-Adrenoreceptor Antagonists” (priority 2005, published 2008)
# Columns and labels:
# 5HT-transporter = molecular target: T1, 5HT-transporter (Homo sapiens, UniProt P31645); assay: Binding experiment for the 5HT-transporter ([3H]paroxetine, human platelet membranes); settings: [3H]paroxetine 0.5 nM, 60 min at 25° C.; for IC50: read-out: h-5HTT pIC50 (converted)
# T1 construct: Human platelet membranes (Oceanix Biosciences Corporation, Hanover, Md., USA) were thawed; tissue Oceanix Biosciences Corporation, Hanover, Md., USA; host or cells: human platelet membranes
# T1 sequence (P31645 whole entry): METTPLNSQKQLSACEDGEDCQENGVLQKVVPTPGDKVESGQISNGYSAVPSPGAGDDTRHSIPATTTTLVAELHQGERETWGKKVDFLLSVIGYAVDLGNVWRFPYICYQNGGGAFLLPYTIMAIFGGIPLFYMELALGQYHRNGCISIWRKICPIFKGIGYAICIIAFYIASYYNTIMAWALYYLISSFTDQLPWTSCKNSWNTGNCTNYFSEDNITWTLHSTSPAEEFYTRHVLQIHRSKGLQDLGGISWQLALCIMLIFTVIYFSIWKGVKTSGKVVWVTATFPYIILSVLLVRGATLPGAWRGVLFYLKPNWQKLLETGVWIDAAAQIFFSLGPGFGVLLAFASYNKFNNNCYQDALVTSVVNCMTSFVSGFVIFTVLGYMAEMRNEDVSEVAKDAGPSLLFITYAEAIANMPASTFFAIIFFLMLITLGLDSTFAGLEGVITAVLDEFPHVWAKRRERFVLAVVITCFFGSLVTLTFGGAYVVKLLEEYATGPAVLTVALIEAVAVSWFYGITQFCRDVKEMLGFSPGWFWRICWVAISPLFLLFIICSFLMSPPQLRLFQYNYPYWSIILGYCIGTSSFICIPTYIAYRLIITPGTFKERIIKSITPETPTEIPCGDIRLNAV
# Protocol: (§1) The interaction of the compounds of Formula (I) with α2C-adrenoceptor receptors was assessed in in vitro radioligand binding experiments. In general, a low concentration of a radioligand with a high binding affinity for a particular receptor or transporter is incubated with a sample of a tissue preparation enriched in a particular receptor or transporter or with a preparation of cells expressing cloned human receptors in a buffered medium. During the incubation, the radioligand binds to the receptor or transporter. When equilibrium of binding is reached, the receptor bound radioactivity is separated from the non-bound radioactivity, and the receptor- or transporter-bound activity is counted. The interaction of the test compounds with the receptor is assessed in competition binding experiments. Various concentrations of the test compound are added to the incubation mixture containing the receptor- or transporter preparation and the radioligand. The test compound in proportion to its binding affinity and its concentration inhibits binding of the radioligand. The radioligand used for […] receptor binding was [^3H]-raulwolscine.
# Human platelet membranes (Oceanix Biosciences Corporation, Hanover, Md., USA) were thawed, diluted in buffer (Tris-HCl 50 mM, 120 mM NaCl and 5 mM KCl) and quickly (max 3 s) homogenised with an Ultraturrax homogenizer. […] Incubation was stopped by rapid filtration of the incubation mixture over GF/B filters, pre-wetted with 0.1% polyethyleneamine, using a Filtermate196 harvester (Packard, Meriden, Conn.). Filters were rinsed extensively with ice-cold buffer and radioactivity on the filters was counted in a Topcount liquid scintillation counter (Packard, Meriden, Conn.). Data were expressed as cpm. Imipramine (at 1 μM final concentration) was used to determine the non-specific binding.
# (§2) Data from assays in the presence of compound were calculated as a percentage of total binding measured in the absence of test compound. Inhibition curves, plotting percent of total binding versus the log value of the concentration of the test compound, were automatically generated, and sigmoidal inhibition curves were fitted using non-linear regression. The pIC50 values of test compounds were derived from individual curves.
# [1] = molecular target: T2, human adrenergic-α2C receptor (Homo sapiens, UniProt P18825); assay: Radioligand binding experiment for hα2C-adrenoceptor ([3H]raulwolscine); settings: [3H]raulwolscine 1 nM, 60 minutes at 25° C.; for IC50: read-out: h-α2C pIC50 (converted)
# T2 construct: expressed in transfected cells; host or cells: CHO cells, stably transfected; membrane preparation
# T2 sequence (P18825 1-462): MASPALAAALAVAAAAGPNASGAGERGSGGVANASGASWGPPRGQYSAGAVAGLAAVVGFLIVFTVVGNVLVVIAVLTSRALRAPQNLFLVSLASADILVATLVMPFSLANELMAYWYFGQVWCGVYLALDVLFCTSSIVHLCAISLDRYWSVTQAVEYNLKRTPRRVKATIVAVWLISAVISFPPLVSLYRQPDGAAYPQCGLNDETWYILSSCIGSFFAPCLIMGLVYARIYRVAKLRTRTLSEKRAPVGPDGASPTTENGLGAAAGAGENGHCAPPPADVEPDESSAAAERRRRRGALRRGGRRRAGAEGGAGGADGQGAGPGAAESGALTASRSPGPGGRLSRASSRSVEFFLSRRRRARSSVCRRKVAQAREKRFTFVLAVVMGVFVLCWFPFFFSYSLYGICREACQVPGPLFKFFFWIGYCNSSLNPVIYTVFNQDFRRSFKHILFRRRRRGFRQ
# Protocol: as §1
# (§3) CHO cells, stabile transfected with human adrenergic-α2A, -α2B or α2C receptor cDNA, were cultured in Dulbecco's Modified Eagle's Medium (DMEM)/Nutrient mixture Ham's F12 (ratio 1:1)(Gibco, Gent-Belgium) supplemented with 10% heat inactivated fetal calf serum (Life Technologies, Merelbeke-Belgium) and antibiotics (100 IU/ml penicillin G, 100 μg/ml streptomycin sulphate, 110 μg/ml pyruvic acid and 100 μg/ml L-glutamine). One day before collection, cells were induced with 5 mM sodiumbutyrate. Upon 80-90% of confluence, cells were scraped in phosphate buffered saline without Ca^2+ and Mg^2+ and collected by centrifugation at 1500×g for 10 minutes. The cells were homogenised in Tris-HCl 50 mM using an Ultraturrax homogenizer and centrifuged for 10 minutes at 23,500×g. The pellet was washed once by resuspension and rehomogenization and the final pellet was resuspended in Tris-HCl, divided in 1 ml aliquots and stored at −70° C.
# (§4) Membranes were thawed and re-homogenized in incubation buffer (glycylglycine 25 mM, pH 8.0). In a total volume of 500 μl, 2-10 μg protein was incubated with [^3H]raulwolscine (NET-722) (New England Nuclear, USA) (1 nM final concentration) with or without competitor for 60 minutes at 25° C. followed by rapid filtration over GF/B filter using a Filtermate196 harvester (Packard, Meriden, Conn.). Filters were rinsed extensively with ice-cold rinsing buffer (Tris-HCl 50 mM pH 7.4). Filter-bound radioactivity was determined by scintillation counting in a Topcount (Packard, Meriden, Conn.) and results were expressed as counts per minute (cpm). Non-specific binding was determined in the presence of 1 μM oxymetazoline for hα2A- and hα2B receptors and 1 μM spiroxatrine for hα2C receptors.
# as §2
# [2] = molecular target: T3, human adrenergic-α2A receptor (Homo sapiens, UniProt P08913); assay: Radioligand binding experiment for hα2A-adrenergic receptor ([3H]raulwolscine); settings: [3H]raulwolscine 1 nM, 60 minutes at 25° C.; for IC50: read-out: h-α2A pIC50 (converted)
# T3 construct: expressed in transfected cells; host or cells: CHO cells, stably transfected; membrane preparation
# T3 sequence (P08913 1-465): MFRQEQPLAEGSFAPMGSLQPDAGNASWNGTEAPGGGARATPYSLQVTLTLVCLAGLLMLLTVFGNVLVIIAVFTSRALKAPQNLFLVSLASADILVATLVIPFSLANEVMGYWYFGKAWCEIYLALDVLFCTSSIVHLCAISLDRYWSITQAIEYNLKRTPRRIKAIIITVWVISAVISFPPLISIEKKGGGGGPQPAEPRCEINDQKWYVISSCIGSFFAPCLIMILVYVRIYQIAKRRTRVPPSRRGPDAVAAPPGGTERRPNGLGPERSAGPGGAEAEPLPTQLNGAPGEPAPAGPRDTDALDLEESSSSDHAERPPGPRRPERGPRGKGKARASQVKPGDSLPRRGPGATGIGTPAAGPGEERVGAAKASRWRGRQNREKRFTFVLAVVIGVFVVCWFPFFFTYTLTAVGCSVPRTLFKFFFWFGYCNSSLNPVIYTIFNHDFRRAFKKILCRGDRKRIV
# Protocol: as §1, §3, §4, §2
Structure (SMILES),IC50 (5HT-transporter),IC50 [1],IC50 [2],h-5HTT pIC50 (5HT-transporter),h-α2C pIC50 [1],h-α2A pIC50 [2]
O=C(Cn1ccnc(NC2CCN(Cc3ccc4ccccc4c3)CC2)c1=O)Nc1ccc(F)cc1 [1-65],158 nM,39.8 nM,158 nM,–,–,–
O=C(Cn1ccnc(NC2CCN(Cc3ccc4ccccc4c3)CC2)c1=O)NCc1ccc(F)cc1 [1-66],63.1 nM,12.6 nM,316 nM,–,–,–
O=c1c(NC2CCN(Cc3ccc4ccccc4c3)CC2)nccn1CCCNCc1ccccc1 [1-67],158 nM,25.1 nM,631 nM,–,–,–
O=C(Cn1ccnc(NC2CCN(Cc3ccc4ccccc4c3)CC2)c1=O)NCc1ccccc1 [1-68],158 nM,20 nM,200 nM,–,–,–
CN(Cc1ccccc1)C(=O)Cn1ccnc(NC2CCN(Cc3ccc4ccccc4c3)CC2)c1=O [1-69],50.1 nM,20 nM,200 nM,–,–,–
CN(Cc1ccccc1)Cc1ccc(-n2ccnc(NC3CCN(Cc4ccc5ccccc5c4)CC3)c2=O)cc1 [1-70],–,–,–,8.0,7.5,6.5
O=C(Cn1ccnc(NC2CCN(Cc3ccc4ccccc4c3)CC2)c1=O)NCCc1ccccc1 [1-71],126 nM,20 nM,316 nM,–,–,–
O=C(Cn1ccnc(NC2CCN(Cc3ccc4ccccc4c3)CC2)c1=O)NCCCc1ccccc1 [1-72],63.1 nM,31.6 nM,200 nM,–,–,–
CC(C)(Cc1ccccc1)NC(=O)Cn1ccnc(NC2CCN(Cc3ccc4ccccc4c3)CC2)c1=O [1-73],158 nM,39.8 nM,398 nM,–,–,–
O=C(NCCCn1ccnc(NC2CCN(Cc3ccc4ccccc4c3)CC2)c1=O)c1ccccc1 [1-74],126 nM,31.6 nM,794 nM,–,–,–
O=C(Nc1cccc(-n2ccnc(NC3CCN(Cc4ccc5ccccc5c4)CC3)c2=O)c1)c1ccc(F)cc1 [1-75],3.98 nM,63.1 nM,100 nM,–,–,–
O=C(NCc1ccc(-n2ccnc(NC3CCN(Cc4ccc5ccccc5c4)CC3)c2=O)cc1)c1ccc(F)cc1 [1-76],–,–,–,8.2,8.1,6.2
O=c1c(NC2CCN(Cc3ccc4ccccc4c3)CC2)nccn1CCCNCCOc1ccccc1 [1-77],63.1 nM,25.1 nM,398 nM,–,–,–
O=c1c(NC2CCN(Cc3ccc4ccccc4c3)CC2)nccn1-c1ccc(CNCC2CCCO2)c(F)c1 (stereo not drawn) [1-80],3.16 nM,2.51 nM,251 nM,–,–,–
O=C(Cn1ccnc(NC2CCN(Cc3ccc4ccccc4c3)CC2)c1=O)NCc1ccco1 [1-81],631 nM,31.6 nM,158 nM,–,–,–
O=c1c(NC2CCN(Cc3ccc4ccccc4c3)CC2)nccn1-c1ccc(CNCc2ccco2)cc1 [1-82],5.01 nM,12.6 nM,158 nM,–,–,–

Structure (SMILES),IC50 (5HT-transporter),IC50 [1],IC50 [2],h-5HTT pIC50 (5HT-transporter),h-α2C pIC50 [1],h-α2A pIC50 [2]
Cc1ccc(CNCc2ccc(-n3ccnc(NC4CCN(Cc5ccc6ccccc6c5)CC4)c3=O)cc2)o1.Cl.Cl [1-83],–,–,–,8.3,7.6,6.7
Cc1ccc(CNCc2ccc(-n3ccnc(NC4CCN(Cc5ccc6ccccc6c5)CC4)c3=O)cc2F)o1 [1-84],3.16 nM,10 nM,200 nM,–,–,–
Cc1ccc(CN(Cc2ccc(-n3ccnc(NC4CCN(Cc5ccc6ccccc6c5)CC4)c3=O)cc2)Cc2ccc(C)o2)o1 [1-85],31.6 nM,79.4 nM,794 nM,–,–,–
Cc1cc(CNC(=O)c2ccc(-n3ccnc(NC4CCN(Cc5ccc6ccccc6c5)CC4)c3=O)cc2)no1 [1-86],25.1 nM,25.1 nM,251 nM,–,–,–
Cc1cc(CNCc2ccc(-n3ccnc(NC4CCN(Cc5ccc6ccccc6c5)CC4)c3=O)cc2F)no1 [1-87],12.6 nM,12.6 nM,251 nM,–,–,–
O=c1c(NC2CCN(Cc3ccc4ccccc4c3)CC2)nccn1-c1ccc(NCCN2CCC(F)CC2)cc1 [1-89],15.8 nM,12.6 nM,200 nM,–,–,–
O=c1c(NC2CCN(Cc3ccc4ccccc4c3)CC2)nccn1-c1ccc(CNCc2ccccn2)cc1 [1-90],7.94 nM,12.6 nM,251 nM,–,–,–
O=c1c(NC2CCN(Cc3ccc4ccccc4c3)CC2)nccn1-c1ccc(CNCCN2CCOCC2)cc1 [1-93],15.8 nM,20 nM,316 nM,–,–,–
O=C(Cn1ccnc(NC2CCN(Cc3ccc4ccccc4c3)CC2)c1=O)NCCN1CCOCC1 [1-94],2000 nM,50.1 nM,631 nM,–,–,–
O=C(Cc1ccsc1)NCc1ccc(-n2ccnc(NC3CCN(Cc4ccc5ccccc5c4)CC3)c2=O)cc1 [1-95],6.31 nM,20 nM,398 nM,–,–,–
Cl.O=C(CCN1CCC(F)CC1)NCc1ccc(-n2ccnc(NC3CCN(Cc4ccc5ccccc5c4)CC3)c2=O)cc1F [1-96],–,–,–,8.0,8.3,7.1
O=C(NCc1ccc(-n2ccnc(NC3CCN(Cc4ccc5ccccc5c4)CC3)c2=O)cc1)c1ccno1 [1-100],12.6 nM,3.98 nM,501 nM,–,–,–
O=C(NCc1ccc(-n2ccnc(NC3CCN(Cc4ccc5ccccc5c4)CC3)c2=O)cc1)c1ccncc1 [1-101],6.31 nM,25.1 nM,501 nM,–,–,–
O=C(CNCCCn1ccnc(NC2CCN(Cc3ccc4ccccc4c3)CC2)c1=O)c1coc2ccccc12 [1-103],158 nM,31.6 nM,631 nM,–,–,–
O=C(Cn1ccnc(NC2CCN(Cc3ccc4ccccc4c3)CC2)c1=O)N(Cc1ccccc1)c1ccccc1 [1-104],126 nM,20 nM,200 nM,–,–,–
O=C1CCCN1Cc1ccc(-n2ccnc(NC3CCN(Cc4ccc5ccccc5c4)CC3)c2=O)cc1 [2-01],20 nM,31.6 nM,251 nM,–,–,–
